Results on 27 compounds are retold here after ChEMBL document CHEMBL4715849, “Recent Progress in the Discovery of Antifungal Agents Targeting the Cell Wall” (J Med Chem, 2020).

Each structure is given as a SMILES string. Values after ≈ are worked out from the molar mass of the structure shown. Square brackets hold non-standard residues; d marks the D form. Peptide text beside a SMILES is read from it. * marks the point of attachment. Fumaryl(OMe) = COC(=O)/C=C/C(=O)*; Dap = NC[C@H](N)C(=O)O

One test has as its system Candida albicans. The test is described as follows: Antifungal activity against Candida albicans AMB-25 incubated for 48 hrs by serial two-fold dilution method. It counts as functional.
For `COC(=O)/C=C/C(=O)NC[C@H](NC(=O)[C@H](N)CC(C)C)C(=O)O`, it took 0.4 µg/mL (≈ 1.21 µM) to inhibit growth (MIC).

Regarding `COC(=O)/C=C/C(=O)NC[C@H](NC(=O)CN)C(=O)O`, the lowest concentration to inhibit growth (MIC) was 0.4 µg/mL (≈ 1.46 µM).

Compound `COC(=O)/C=C/C(=O)NC[C@H](N)C(=O)N[C@H](C(=O)O)C(C)C` had an MIC of 0.4 µg/mL (≈ 1.27 µM).

In the case of `COC(=O)/C=C/C(=O)NC[C@H](NC(=O)[C@H](N)C(C)C)C(=O)O`, the MIC turned out to be 0.4 µg/mL (≈ 1.27 µM).

In turn, `COC(=O)/C=C/C(=O)NC[C@H](N)C(=O)N[C@@H](CCSC)C(=O)O` registered a minimum inhibitory concentration (MIC) of 0.4 µg/mL (≈ 1.15 µM).

`COC(=O)/C=C/C(=O)NC[C@H](NC(=O)[C@H](N)Cc1ccccc1)C(=O)O` yielded a minimum inhibitory concentration (MIC) of 0.4 µg/mL (≈ 1.1 µM).

In turn, `CCC(N)C(=O)N[C@@H](CNC(=O)/C=C/C(=O)OC)C(=O)O` (stereo partly drawn) returned an MIC of 0.4 µg/mL (≈ 1.33 µM).

In the case of `COC(=O)/C=C/C(=O)NC[C@H](N)C(=O)N[C@@H](Cc1ccc(O)cc1)C(=O)O`, the MIC worked out at 0.4 µg/mL (≈ 1.05 µM).

Compound `COC(=O)/C=C/C(=O)NC[C@H](N)C(=O)N[C@@H](C)C(=O)O` had an MIC of 0.4 µg/mL (≈ 1.39 µM).

The compound `COC(=O)/C=C/C(=O)NC[C@H](N)C(=O)N[C@@H](CC(C)C)C(=O)O` returned an MIC of 0.4 µg/mL (≈ 1.21 µM).

As for `CCCC(NC(=O)[C@@H](N)CNC(=O)/C=C/C(=O)OC)C(=O)O` (stereo partly drawn), 0.4 µg/mL (≈ 1.27 µM) was the least that counted as inhibitory (MIC).

The compound `COC(=O)/C=C/C(=O)NC[C@H](NC(=O)[C@H](N)CCSC)C(=O)O` showed a minimal inhibitory concentration (MIC) of 0.4 µg/mL (≈ 1.15 µM).

`CCCCC(N)C(=O)N[C@@H](CNC(=O)/C=C/C(=O)OC)C(=O)O` (stereo partly drawn): 0.4 µg/mL (≈ 1.21 µM) was the least that counted as inhibitory (MIC).

`COC(=O)/C=C/C(=O)NC[C@H](N)C(=O)N[C@@H](Cc1ccccc1)C(=O)O`: the MIC came out at 0.4 µg/mL (≈ 1.1 µM).

In the case of `COC(=O)/C=C/C(=O)NC[C@H](NC(=O)[C@@H](C)N)C(=O)O`, inhibition of growth (MIC) required 0.4 µg/mL (≈ 1.39 µM).

With `COC(=O)/C=C/C(=O)NC[C@H](NC(=O)[C@H](N)Cc1ccc(O)cc1)C(=O)O`, the MIC was found to be 0.4 µg/mL (≈ 1.05 µM).

The subject of another test is Candida albicans. The test is described as follows: Antifungal activity against Candida albicans incubated for 24 hrs by turbidimetric method. It counts as functional.
Compound `COC(=O)/C=C/C(=O)NC[C@H](N)C(=O)N[C@@H](CCSC)C(=O)N[C@@H](C)C(=O)O` returned an MIC of 0.025 µg/mL (≈ 0.0597 µM).

In turn, `CCC[C@H](NC(=O)[C@@H](N)CCCCN)C(=O)N[C@@H](CNC(=O)/C=C/C(=O)OC)C(=O)O` had an MIC of 0.025 µg/mL (≈ 0.0564 µM).

The compound `COC(=O)/C=C/C(=O)NC[C@H](NC(=O)[C@@H](N)CCSC)C(=O)N[C@@H](CCSC)C(=O)O` returned an MIC of 0.025 µg/mL (≈ 0.0522 µM).

In turn, `COC(=O)/C=C/C(=O)NC[C@H](NC(=O)[C@H](CCSC)NC(=O)[C@@H](N)CCSC)C(N)=O` yielded an MIC of 0.025 µg/mL (≈ 0.0523 µM).

The compound `COC(=O)/C=C/C(=O)NC[C@H](NC(=O)[C@H](CCSC)NC(=O)[C@H](CCSC)NC(=O)[C@H](CCSC)NC(=O)[C@@H](N)CCSC)C(=O)O` (H-MMMM[Dap](Fumaryl(OMe))-OH) yielded an MIC of 0.025 µg/mL (≈ 0.0337 µM).

In turn, `COC(=O)/C=C/C(=O)NC[C@H](NC(=O)[C@H](CCSC)NC(=O)[C@H](CCSC)NC(=O)[C@@H](N)CNC(=O)/C=C/C(=O)OC)C(=O)O` (H-[Dap](Fumaryl(OMe))MM[Dap](Fumaryl(OMe))-OH) came in with an MIC of 0.025 µg/mL (≈ 0.0369 µM).

`CCC[C@H](NC(=O)[C@H](CNC(=O)/C=C/C(=O)OC)NC(=O)[C@@H](N)CCC)C(=O)O` showed a minimum inhibitory concentration (MIC) of 0.025 µg/mL (≈ 0.0603 µM).

Compound `CCCC(NC(=O)[C@@H](N)CCSC)C(=O)N[C@@H](CNC(=O)/C=C/C(=O)OC)C(N)=O` (stereo partly drawn) showed an MIC of 0.025 µg/mL (≈ 0.0561 µM).

`COC(=O)/C=C/C(=O)NC[C@H](NC(=O)[C@H](C)NC(=O)[C@@H](N)CCSC)C(N)=O` returned an MIC of 0.025 µg/mL (≈ 0.0599 µM).

For `COC(=O)/C=C/C(=O)NC[C@H](NC(=O)[C@H](C)N)C(=O)N[C@@H](C)C(=O)O`, the MIC amounted to 0.025 µg/mL (≈ 0.0698 µM).

Regarding `COC(=O)/C=C/C(=O)NC[C@H](NC(=O)[C@H](CCSC)NC(=O)[C@@H](N)CNC(=O)/C=C/C(=O)OC)C(=O)O`, the lowest concentration to inhibit growth (MIC) was 0.025 µg/mL (≈ 0.0458 µM).

In the next test the test system is Candida albicans. Description: Antifungal activity against Candida albicans ATCC 262 incubated for 24 hrs by turbidimetric method. It counts as functional.
Consider `COC(=O)/C=C/C(=O)NC[C@H](N)C(=O)N[C@@H](CCSC)C(=O)N[C@@H](C)C(=O)O`, for which the MIC was found to be 0.025 µg/mL (≈ 0.0597 µM).

On to `CCC[C@H](NC(=O)[C@@H](N)CCCCN)C(=O)N[C@@H](CNC(=O)/C=C/C(=O)OC)C(=O)O`, for which the MIC turned out to be 0.025 µg/mL (≈ 0.0564 µM).

As to `COC(=O)/C=C/C(=O)NC[C@H](NC(=O)[C@@H](N)CCSC)C(=O)N[C@@H](CCSC)C(=O)O`, it took 0.025 µg/mL (≈ 0.0522 µM) to inhibit growth (MIC).

In turn, `COC(=O)/C=C/C(=O)NC[C@H](NC(=O)[C@H](CCSC)NC(=O)[C@@H](N)CCSC)C(N)=O` registered a minimum inhibitory concentration (MIC) of 0.025 µg/mL (≈ 0.0523 µM).

In turn, `COC(=O)/C=C/C(=O)NC[C@H](NC(=O)[C@H](CCSC)NC(=O)[C@H](CCSC)NC(=O)[C@H](CCSC)NC(=O)[C@@H](N)CCSC)C(=O)O` (H-MMMM[Dap](Fumaryl(OMe))-OH) gave an MIC of 0.025 µg/mL (≈ 0.0337 µM).

For `COC(=O)/C=C/C(=O)NC[C@H](NC(=O)[C@H](CCSC)NC(=O)[C@H](CCSC)NC(=O)[C@@H](N)CNC(=O)/C=C/C(=O)OC)C(=O)O` (H-[Dap](Fumaryl(OMe))MM[Dap](Fumaryl(OMe))-OH), the MIC was 0.025 µg/mL (≈ 0.0369 µM).

Consider `CCC[C@H](NC(=O)[C@H](CNC(=O)/C=C/C(=O)OC)NC(=O)[C@@H](N)CCC)C(=O)O`, for which 0.05 µg/mL (≈ 0.121 µM) was the least that counted as inhibitory (MIC).

As for `CCCC(NC(=O)[C@@H](N)CCSC)C(=O)N[C@@H](CNC(=O)/C=C/C(=O)OC)C(N)=O` (stereo partly drawn), 0.025 µg/mL (≈ 0.0561 µM) was the least that counted as inhibitory (MIC).

`COC(=O)/C=C/C(=O)NC[C@H](NC(=O)[C@H](C)NC(=O)[C@@H](N)CCSC)C(N)=O` came in with an MIC of 0.025 µg/mL (≈ 0.0599 µM).

`COC(=O)/C=C/C(=O)NC[C@H](NC(=O)[C@H](C)N)C(=O)N[C@@H](C)C(=O)O` yielded an MIC of 0.025 µg/mL (≈ 0.0698 µM).

Turning to `COC(=O)/C=C/C(=O)NC[C@H](NC(=O)[C@H](CCSC)NC(=O)[C@@H](N)CNC(=O)/C=C/C(=O)OC)C(=O)O`, it took 0.025 µg/mL (≈ 0.0458 µM) to inhibit growth (MIC).
